Patent publication US4239752A, “O-Demethylseldomycin factor 5 derivatives” (Abbott Laboratories, priority 1979, dated 1980)
Converted amounts (≈) assume the structure as drawn.

Experiments:
[1] = system: Gram-positive and Gram-negative organisms; settings: Staphylococcus aureus, Klebsiella pneumoniae, Escherchia coli and Proteus species; cited from earlier work
Eschericha coli ATCC 26 = assay: in vitro antibiotic activity, two fold dilution test (MIC); format: cell-based; settings: Streptomycin Assay Agar with yeast extract, pH 7.9, inoculum approx. 1×10^5
Procedure: (§1) The in vitro antibiotic activity is determined by a two fold dilution test using Streptomycin Assay Agar with yeast extract (at pH 7.9). The inoculum of approximately 1×10^5 of the indicated test organism is delivered by a multiple inoculator. The minimum inhibitory concentrations for a representative compound, O-demethyl-3'-deoxyseldomycin factor 5 is set forth in Table II. The minimum inhibitory concentrations are expressed in micrograms per milliliter.

Escherichia coli R3 = assay: as above; format: cell-based; settings: Streptomycin Assay Agar with yeast extract, pH 7.9, inoculum approx. 1×10^5
Procedure: as §1

Escherichia coli 76-2 = assay: as above; format: cell-based; settings: 762, Streptomycin Assay Agar with yeast extract, pH 7.9, inoculum approx. 1×10^5
Procedure: as §1

Escherichia coli R5 = assay: as above; format: cell-based; settings: Streptomycin Assay Agar with yeast extract, pH 7.9, inoculum approx. 1×10^5
Procedure: as §1

[2] = system: Proteus stuartii ATCC 25825; assay: as above; format: cell-based; settings: Streptomycin Assay Agar with yeast extract, pH 7.9, inoculum approx. 1×10^5
Procedure: as §1

[3] = system: Klebsiella pneumoniae ATCC 10031; assay: as above; format: cell-based; settings: ATCC10031, Streptomycin Assay Agar with yeast extract, pH 7.9, inoculum approx. 1×10^5
Procedure: as §1

[4] = system: Proteus vulgaris ATCC 6897; assay: as above; format: cell-based; settings: ATCC6897, Streptomycin Assay Agar with yeast extract, pH 7.9, inoculum approx. 1×10^5
Procedure: as §1

[5] = system: Pseudomonas aeruginosa BMH#1; assay: as above; format: cell-based; settings: Streptomycin Assay Agar with yeast extract, pH 7.9, inoculum approx. 1×10^5
Procedure: as §1

[6] = system: Pseudomonas aeruginosa KY-8512; assay: as above; format: cell-based; settings: KY8512, Streptomycin Assay Agar with yeast extract, pH 7.9, inoculum approx. 1×10^5
Procedure: as §1

Escherichia coli R16 = assay: as above; format: cell-based; settings: Streptomycin Assay Agar with yeast extract, pH 7.9, inoculum approx. 1×10^5
Procedure: as §1

[7] = system: Bacillus subtilis U. of Ill. 10707; assay: as above; format: cell-based; settings: Streptomycin Assay Agar with yeast extract, pH 7.9, inoculum approx. 1×10^5
Procedure: as §1

[8] = system: Staphylococcus aureus ATCC 6538P; assay: as above; format: cell-based; settings: ATCC6538P, Streptomycin Assay Agar with yeast extract, pH 7.9, inoculum approx. 1×10^5
Procedure: as §1

Escherichia coli NR 79 = assay: as above; format: cell-based; settings: NR79, Streptomycin Assay Agar with yeast extract, pH 7.9, inoculum approx. 1×10^5
Procedure: as §1

[9] = system: Pseudomonas aeruginosa PST; assay: as above; format: cell-based; settings: Streptomycin Assay Agar with yeast extract, pH 7.9, inoculum approx. 1×10^5
Procedure: as §1

Escherichia coli R19 = assay: as above; format: cell-based; settings: Streptomycin Assay Agar with yeast extract, pH 7.9, inoculum approx. 1×10^5
Procedure: as §1

MIC (Eschericha coli ATCC 26) | MIC (Escherichia coli R3) | MIC (Escherichia coli 76-2) | MIC (Escherichia coli R5) | MIC [2] | MIC [3] | MIC [4] | MIC [5] | MIC [6] | MIC (Escherichia coli R16) | MIC [7] | MIC [8] | MIC (Escherichia coli NR 79) | MIC [9] | MIC (Escherichia coli R19) | SMILES | antibiotic activity [1]
 |  |  |  |  |  |  |  |  |  |  |  |  |  |  | COC1COC(O[C@@H]2[C@@H](O)[C@H](O[C@H]3O[C@H](CN)C[C@H](O)[C@H]3N)[C@@H](N)C[C@H]2N)C(N)C1N (stereo partly shown) [Seldomycin factor 5] | highly active, broad-spectrum antibiotic effective against both Gram-positive and Gram-negative organisms
0.16 µg/mL (≈ 0.38 µM) | 2.5 µg/mL (≈ 5.95 µM) | 0.16 µg/mL (≈ 0.38 µM) | 0.8 µg/mL (≈ 1.9 µM) | 2.5 µg/mL (≈ 5.95 µM) | 0.04 µg/mL (≈ 0.0951 µM) | 0.31 µg/mL (≈ 0.737 µM) | 0.63 µg/mL (≈ 1.5 µM) | 1.25 µg/mL (≈ 2.97 µM) | 0.4 µg/mL (≈ 0.951 µM) | 0.01 µg/mL (≈ 0.0238 µM) | 0.02 µg/mL (≈ 0.0476 µM) | 0.16 µg/mL (≈ 0.38 µM) | 720 µg/mL (≈ 1710 µM) | 0.16 µg/mL (≈ 0.38 µM) | NC[C@@H]1CC[C@@H](N)[C@@H](O[C@H]2[C@H](O)[C@@H](OC3OCC(O)C(N)C3N)[C@H](N)C[C@@H]2N)O1 (stereo partly shown) [O-demethyl-3'-deoxyseldomycin factor 5, O-Demethyl-3'-deoxyseldomycin factor 5] | 
